Patent US8716231B2, “Use of benzo-fused heterocycle sulfamide derivatives for the treatment of pain” (Janssen Pharmaceutica NV, priority 2005, dated 2014)
Entries after “also recorded” stand apart in the source; their conditions may differ.

Legend:
[1] = test system: formalin-induced hyperalgesia (paw licking); assay: Formalin-Induced Hyperalgesia Model; assay type: in vivo, CF-1 mice; settings: Mus musculus; i.p., 2 hours before formalin; 95% CI range 53.6-225 mg/kg; read-out: median effective dose (ED50) for a 50% or greater reduction in AUC, secondary phase (phase 2, inflammatory)
Description: Adult male CF-1 mice weighing 2-0 g were obtained from Charles River (Wilmington, Mass.). All animals were house on a 12:12 light:dark cycle and permitted free access to both food and water, except when removed from the home cage for experimental procedures.
In this model, the injection of formalin elicits a distinct biphasic behavioral profile characterized by the mouse licking the affected paw. Immediately after the injection, the mouse licks the paw for about 10 minutes. This corresponds to phase 1 (acute response) and is followed by a brief latency period where there is little behavioral activity. A more prolonged period of about 20-30 minutes of paw licking ensues which constitutes phase 2 (inflammatory).
Two hours after administration, formalin was injected sub-dermally (20 μL, 27 gauge needle) into the plantar surface of the right hind foot. The bevel of the needle was placed facing down toward the skin surface. […] The cumulative length of licking for each 2 minute period was recorded. […] Animals were euthanized following the conclusion of the experiment.
Area under the curve (AUC) determinations were made using the GraphPad Prism Version 3.03. Total AUC was calculated for both the dosed and control groups for both acute and inflammatory phases. The AUC of individual animals for each phase was also calculated and converted to a percentage of total AUC of control.

[2] = test system: spontaneous locomotor activity; assay: Taxol Induced Peripheral Neuropathy Model (pilot), Open Field testing; assay type: in vivo, Sprague-Dawley rats; settings: 100 mg/kg po daily + Taxol, Day 11
[3] = test system: Taxol®-induced degeneration of sciatic nerve and right hind paw; assay: Taxol Induced Peripheral Neuropathy Model (pilot), histopathology; assay type: in vivo, Sprague-Dawley rats; settings: 100 mg/kg po daily + Taxol; Day 13
Description: (§1) The animals were housed in polycarbonate plastic cages, 2 animals per cage, at a temperature of 18-26° C., 30-70% humidity, 12-hour light/dark cycle, with food and water available ad libityum.
(§2) On days 1, 3, 5, and 7, the rats received an ip (intraperitoneal) injection of Taxol® (2 mg/kg).
On Day 13, the animals were euthanized by carbon dioxide asphyxiation. The sciatic nerve and right hind paw were excised and placed in 10% neutral buffered formalin. The harvested tissues were blocked, embedded in paraffin, sectioned and stained with hemotoxylin and eosin. The tissue was examined using light microscopy and scored by an evaluator blind to the treatment regimen. The tissue was ranked on a scale of 0 to 3 based on the degree and amount of axonal disruption observed in the section, with 0 being a normal appearance of the axon, 1 to 2 being a mild to moderate disruption of the axons and a 3 being a complete disruption and Wallerian degeneration of the axons (Cavaletti, G, Tredici, G, Braga, M, Tazzari, S. Experimental peripheral neuropathy induced in adult rats by repeated intraperitoneal administration of Taxol®. Exper Neurol 133:64-72,1995). Data were analyzed using one-way ANOVA and Dunnett's test, with statistical significance at p<0.05.

[4] = test system: Taxol®-induced mechanical allodynia; assay: Taxol Induced Peripheral Neuropathy Model (pilot), Von Frey testing; assay type: in vivo, Sprague-Dawley rats; settings: 100 mg/kg po daily for 12 days with Taxol 2 mg/kg i.p. days 1, 3, 5, 7; Day 12
Description: In addition, the compound's effects on spontaneous locomotor activity was measured.
as §1, §2
Two behavioral tests were performed: measurement of tactile sensitivity and spontaneous locomotor activity. At baseline and on Days 5 and 12 post-Taxol® injection, the animals underwent Von Frey testing for mechanical allodynia (according to the procedure as described in Chaplan, S R, Bach, F W, Pogrel, J W, Chung, J M, Yaksh, T L. Quantitative assessment of tactile allodynia in the rat paw. J Neurosci Meth, 53:55-63, 1994). Tactile sensitivity (i.e. mechanical allodynia) was measured using calibrated filaments touched to the plantar surface of the affected limb to determine paw withdrawal threshold. Briefly, the rats were placed in a Plexiglas cage with a wire mesh bottom and allowed to acclimate for 10 minutes. Once the animals settled, the plantar surface of the right hind paw was touched with a 2.0 g von Frey filament. […] Data were analyzed using two-way ANOVA, one-way ANOVA and Dunnett's test, with statistical significance at p<0.05.

Which results are given for `NS(=O)(=O)NC[C@H]1COc2cc(Cl)ccc2O1` [Compound #8, (2S)-(−)-N-(6-Chloro-2,3-dihydro-benzo[1,4]dioxin-2-ylmethyl)-sulfamide]?
ED50 [1]: 101 mg/kg; vertical rearing (Open Field) ([2]; p<0.05): decreased vertical rearing compared to Taxol® alone; horizontal movement (Open Field) ([2]; vs Taxol alone): no difference between treatment groups; degeneration in the sciatic nerve (histopathology) [3]: positive trend to decreased degeneration in the sciatic nerve, although the differences were not statistically significant; severity of degeneration in the right hind paw (histopathology) [3]: no effect on the severity of Taxol®-induced degeneration in the right hind paw; effect on Taxol-induced mechanical allodynia [4]: appeared to potentiate the pain response compared to Taxol® alone; however, this difference was not statistically significant; also recorded: ineffective in preventing the allodynia
